EC50 data for 42 compounds are collected here from patent publication US11370785B2, “Multicyclic compounds as farnesoid X receptor modulators” (BRISTOL-MYERS SQUIBB COMPANY, priority 2017, dated 2022).

The assay addresses T1, human FXR (Homo sapiens, UniProt Q96RI1).
T1 construct: expressed in transfected cells; host or cells: HEK293 cells stably carrying a 5xGal4-response-element firefly luciferase reporter, transiently transfected with the pcDNA3.1-Gal4-FXR plasmid
T1 sequence (Q96RI1 262-486 limits assumed): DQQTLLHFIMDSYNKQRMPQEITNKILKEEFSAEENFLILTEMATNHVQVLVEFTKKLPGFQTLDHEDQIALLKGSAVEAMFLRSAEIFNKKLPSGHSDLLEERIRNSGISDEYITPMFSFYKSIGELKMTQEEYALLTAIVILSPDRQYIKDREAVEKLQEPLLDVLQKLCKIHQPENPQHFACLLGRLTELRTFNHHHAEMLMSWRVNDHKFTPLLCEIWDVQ
Nature of the assay: transient human FXR/Gal4-luciferase reporter assay. The format is cell-based. The conditions noted are these: Gal4-hFXR reporter in HEK293 cells; relative to 8 μM GW-4064; read-out: FXR EC50. As for the experimental part:
The exemplified compounds of the present invention were tested in the transient human FXR/Gal4-luciferase reporter assay, and assay results were reported in Table 1 together with other analytical data.
A Gal4-hFXR fusion construct reporter system was used as the primary assay to characterize compound activity. A construct including 5 copies of the Gal4 promoter response element upstream of a firefly luciferase reporter cDNA was stably expressed in HEK293 cells. This reporter cell line was maintained in Dulbecco's Modified Eagle's medium (DMEM; Gibco) supplemented with 1% penicillin-streptomycin (P/S) solution, 500 μg/mL Zeocin and 10% charcoal/dextran-treated fetal bovine serum (cs-FBS) at 37° C. in a humidified 5% CO2 atmosphere. Another plasmid was constructed in which the human cytomegalovirus promoter in the pcDNA3.1 vector directs the expression of the cDNA encoding a fusion protein comprised of the DNA binding domain from the Gal4 transcription factor fused to the ligand binding domain from human FXR.
The day prior to transfection, the reporter cells in culture are detached from the plate with trypsin and plated into a T75 flask at a sufficient density to achieve approximately 90% confluence the next morning. The transfection reagents are prepared by separately diluting 25 μg of the pcDNA3.1-Gal4-FXR plasmid into 1.87 mL of Opti-MEM (Thermo-Fisher), and 40 μL of Lipofectamine 2000 (Thermo-Fisher) into 1.87 mL of Opti-MEM, and then adding the diluted DNA solution into the diluted Lipofectamine 2000 solution and incubating at room temperature for 15-20 minutes. The mixture is further diluted with 10 mL of a solution comprised of DMEM, 10% cs-FBS, and 1% P/S immediately prior to transferring to the cells. The maintenance culture media is aspirated from the cells and the final transfection mixture is added before the cells are incubated overnight at 37° C. in a humidified 5% CO2 atmosphere. This protocol can be scaled up, and the transiently transfected cells can be cryopreserved in an assay-ready format.
For compound testing, 100 nL of the compounds (serial dilutions in DMSO) are dispensed with an Echo acoustic dispenser (Labcyte) into the wells of a Corning/Costar clear bottom 384-well white plate. The transfected cells are harvested, counted, and diluted such that 10-25,000 cells in 25 μL are plated into each well of the 384-well compound assay plate. The compound-treated cells are incubated overnight at 37° C. in a humidified 5% CO2 atmosphere. The next morning 25 μL of Steady-Glo (Promega) are added to each well of the plate, the mixture is incubated for 15 min. with shaking, and luminescence is measured on an Envision (Perkin Elmer) plate reader. Background counts from cells treated with DMSO alone are subtracted from all raw counts, and the corrected values are converted to a percentage of the control response attained with 8 μM GW-4064.
For orientation: EC50 means the concentration needed to bring the measured effect to its halfway point. Consider `CC(C)Oc1cc(C(=O)O)nc2ccc(N3CCC4(CC3)CC(=Cc3c(-c5c(Cl)cncc5Cl)noc3C3CC3)C4)cc12` [Example 85], for which the EC50 was 3 nM. The result for `O=C(O)c1cc(OC(F)F)c2cc(N3CCC4(CC3)CC(=Cc3c(-c5ccccc5C(F)(F)F)noc3C3CC3)C4)ccc2n1` [Example 86] reads 10 nM. Then `O=C(O)c1cc(OCC2CC2)c2cc(N3CCC4(CC3)CC(=Cc3c(-c5ccccc5OC(F)(F)F)noc3C3CC3)C4)ccc2n1` [Example 87], with 34 nM.

As for `O=C(O)c1cc(F)c2nc(N3CCC4(CC3)CC(=Cc3c(-c5c(Cl)cncc5Cl)noc3C3CC3)C4)sc2c1` [Example 88], the 50% effective concentration (EC50) was 69 nM. Regarding `Cc1cc(C(=O)O)cc2sc(N3CCC4(CC3)CC(=Cc3c(-c5c(Cl)cncc5Cl)noc3C3CC3)C4)nc12` [Example 89], the half-maximal effective concentration (EC50) worked out at 53 nM. In the case of `CC(C)Oc1cc(C(=O)O)nc2ccc(N3CCC4(CC3)CC(Cc3c(-c5ccccc5OC(F)(F)F)noc3C3CC3)C4)cc12` [Example 90], the 50% effective concentration (EC50) is 12 nM. The result for `O=C(O)c1cc(F)c2nc(N3CCC4(CC3)CC(Cc3c(-c5ccccc5OC(F)(F)F)noc3C3CC3)C4)sc2c1` [Example 91] reads 410 nM.

In the case of `O=C(O)c1cc(OCCO)c2cc(N3CCC4(CC3)CC(=Cc3c(-c5ccccc5C(F)(F)F)noc3C3CC3)C4)ccc2n1` [Example 92], the EC50 was 450 nM.

Consider `COc1cc(N2CCC3(CC2)CC(Cc2c(-c4c(Cl)cccc4Cl)noc2C2CC2)C3)ccc1OCC(=O)O` [Example 93], for which the EC50 was 505 nM.

With `O=C(O)c1cc(OCCO)c2cc(N3CCC4(CC3)CC(Cc3c(-c5ccccc5C(F)(F)F)noc3C3CC3)C4)ccc2n1` [Example 94], the EC50 came out at 472 nM. Turning to `O=C(O)c1cc(OCCO)c2cc(N3CCC4(CC3)CC(=Cc3c(-c5c(Cl)cncc5Cl)noc3C3CC3)C4)ccc2n1` [Example 95], the 50% effective concentration (EC50) amounted to 200 nM.

On to `CCc1cc(N2CCC3(CC2)CC(Cc2c(-c4c(Cl)cccc4Cl)noc2C2CC2)C3)ccc1OCC(=O)O` [Example 96], for which the concentration for a half-maximal effect (EC50) was determined as 793 nM. The result for `COCCOc1cc(C(=O)O)nc2ccc(N3CCC4(CC3)CC(Cc3c(-c5ccccc5C(F)(F)F)noc3C3CC3)C4)cc12` [Example 97] reads 73 nM; that for `COCCOc1cc(C(=O)O)nc2ccc(N3CCC4(CC3)CC(=Cc3c(-c5ccccc5C(F)(F)F)noc3C3CC3)C4)cc12` [Example 98], 38 nM.

Turning to `CCOc1cc(C(=O)O)nc2ccc(N3CCC4(CC3)CC(Cc3c(-c5ccccc5C(F)(F)F)noc3C3CC3)C4)cc12` [Example 99], the EC50 was 17 nM. The result for `CCOc1cc(C(=O)O)nc2ccc(N3CCC4(CC3)CC(=Cc3c(-c5ccccc5C(F)(F)F)noc3C3CC3)C4)cc12` [Example 100] reads 18 nM. On to `O=C(O)c1cc(OC(F)(F)F)c2nc(N3CCC4(CC3)CC(=Cc3c(-c5c(Cl)cncc5Cl)noc3C3CC3)C4)sc2c1` [Example 101], for which the EC50 turned out to be 33 nM. The result for `COc1cc2nc(N3CCC4(CC3)CC(=Cc3c(-c5c(Cl)cncc5Cl)noc3C3CC3)C4)sc2cc1C(=O)O` [Example 102] reads 157 nM; that for `O=C(O)c1ccc2sc(N3CCC4(CC3)CC(=Cc3c(-c5c(Cl)cncc5Cl)noc3C3CC3)C4)nc2c1` [Example 103], 249 nM; that for `COc1cc2nc(N3CCC4(CC3)CC(=Cc3c(-c5ccccc5C(F)(F)F)noc3C3CC3)C4)sc2cc1C(=O)O` [Example 104], 667 nM. Turning to `COc1cc2nc(N3CCC4(CC3)CC(Cc3c(-c5ccccc5C(F)(F)F)noc3C3CC3)C4)sc2cc1C(=O)O` [Example 105], the EC50 is 228 nM. The result for `O=C(O)c1cc(C(F)(F)F)c2cc(N3CCC4(CC3)CC(=Cc3c(C(C5CC5)C5CC5)noc3C3CC3)C4)ccc2n1` [Example 106] reads 1420 nM. For the compound `COc1cc(C(=O)O)nc2ccc(N3CCC4(CC3)CC(=Cc3c(C(C5CC5)C5CC5)noc3C3CC3)C4)cc12` [Example 107], the half-maximal effective concentration (EC50) is 1550 nM. `O=C(O)c1cc(OC2CCC2)c2cc(N3CCC4(CC3)CC(=Cc3c(-c5ccccc5C(F)(F)F)noc3C3CC3)C4)ccc2n1` [Example 108]: the half-maximal effective concentration (EC50) turned out to be 4 nM. Then `O=C(O)c1cc(OC2CCC2)c2cc(N3CCC4(CC3)CC(Cc3c(-c5ccccc5C(F)(F)F)noc3C3CC3)C4)ccc2n1` [Example 109], with 33 nM; and `COCCOc1cc(C(=O)O)nc2ccc(N3CCC4(CC3)CC(=Cc3c(-c5ccccc5OC(F)(F)F)noc3C3CC3)C4)cc12` [Example 110], with 634 nM; and `CC(C)(C)OC(=O)N1c2ccc(N3CCC4(CC3)CC(=Cc3c(-c5ccccc5OC(F)(F)F)noc3C3CC3)C4)cc2CCC1C(=O)O` (stereo not drawn) [Example 111], with 481 nM. Then `O=C(O)C1CCc2cc(N3CCC4(CC3)CC(=Cc3c(-c5ccccc5OC(F)(F)F)noc3C3CC3)C4)ccc2N1` (stereo not drawn) [Example 112], with 1030 nM; and `O=C(O)c1ccc2nc(N3CCC4(CC3)CC(=Cc3c(-c5ccccc5C(F)(F)F)noc3C3CC3)C4)sc2n1` [Example 113], with 1240 nM; and `O=C(O)c1ccc2nc(N3CCC4(CC3)CC(Cc3c(-c5ccccc5C(F)(F)F)noc3C3CC3)C4)sc2n1` [Example 114], with 744 nM. The result for `O=C(O)c1cc(OC2CCC2)c2cc(N3CCC4(CC3)CC(=Cc3c(-c5ccccc5OC(F)(F)F)noc3C3CC3)C4)ccc2n1` [Example 115] reads 64 nM; that for `O=C(O)c1cc(OC2CCC2)c2cc(N3CCC4(CC3)CC(Cc3c(-c5ccccc5OC(F)(F)F)noc3C3CC3)C4)ccc2n1` [Example 116], 14 nM; that for `COc1ccc(C(=O)O)c2ccc(N3CCC4(CC3)CC(=Cc3c(-c5ccccc5C(F)(F)F)noc3C3CC3)C4)nc12` [Example 117], 241 nM.

In the case of `COc1ccc(C(=O)O)c2ccc(N3CCC4(CC3)CC(Cc3c(-c5ccccc5C(F)(F)F)noc3C3CC3)C4)nc12` [Example 118], the 50% effective concentration (EC50) turned out to be 191 nM.

As to `COc1ccc(C(=O)O)c2ccc(N3CCC4(CC3)CC(=Cc3c(-c5c(Cl)cncc5Cl)noc3C3CC3)C4)nc12` [Example 119], the EC50 is 336 nM. The result for `O=C(O)c1cc(OC2CCCC2)c2cc(N3CCC4(CC3)CC(=Cc3c(-c5ccccc5C(F)(F)F)noc3C3CC3)C4)ccc2n1` [Example 120] reads 3 nM; that for `O=C(O)c1cc(OC2CCCC2)c2cc(N3CCC4(CC3)CC(=Cc3c(-c5ccccc5OC(F)(F)F)noc3C3CC3)C4)ccc2n1` [Example 121], 16 nM; that for `O=C(O)c1cc(OC2CCCC2)c2cc(N3CCC4(CC3)CC(Cc3c(-c5ccccc5OC(F)(F)F)noc3C3CC3)C4)ccc2n1` [Example 122], 16 nM. Then `O=C(O)c1cc(OC2CCCC2)c2cc(N3CCC4(CC3)CC(Cc3c(-c5ccccc5C(F)(F)F)noc3C3CC3)C4)ccc2n1` [Example 123], with 6 nM; and `O=C(O)c1cc(OC2CCC2)c2cc(N3CCC4(CC3)CC(=Cc3c(-c5c(Cl)cncc5Cl)noc3C3CC3)C4)ccc2n1` [Example 124], with 14 nM. The result for `O=C(O)c1cc(OC2CCCC2)c2cc(N3CCC4(CC3)CC(=Cc3c(-c5c(Cl)cncc5Cl)noc3C3CC3)C4)ccc2n1` [Example 125] reads 15 nM. For `O=C(O)c1cc(F)c2nc(N3CCC4(CC3)CC(=Cc3c(-c5c(Cl)cccc5Cl)noc3C(F)(F)F)C4)sc2c1` [Example 126], the EC50 was determined as 68 nM.
